The source of these data is PMC11468049 (Fluids and Barriers of the CNS, 2024).

The test system of data set [1] is iPSC-derived pericyte-like cells. In words: Aβ42-Hylite488 internalization by pericyte-like cells (confocal microscopy). It counts as cell-based, human. To be noted: confocal microscopy (Fig. 5D).
Description: Data are reported as mean ± standard deviation. […] The last column contains the merged images. Scale bars: 10 μm. […] (n = 4 wells of biological replicates per condition) **: p < 0.01 in Student’s t-test. Data are reported as mean ± standard deviation. […] Confocal microscopy images were taken at 5 μm z-slice intervals. All z-slices with Hoechst 33342 nuclear staining were aggregated for maximum intensity projection analysis. Scale bars: 10 μm.
In data set [2] the target is T1, LRP1 (Homo sapiens, UniProt Q07954).
T1 construct: endogenous in cells; host or cells: APOE3 human iPSC-derived BMEC-like cells
Briefly: in vitro Aβ transcytosis assay with LRP1 inhibition by RAP. It counts as cell-based. To be noted: APOE3 iPSC-derived BMEC-like cells on Transwell; with and without RAP; 3 h; apical Aβ40 by ELISA; n = 8 wells (Fig. 2D). On the procedure: (§1) Transwells (Corning, 3460) pre-coated with 200 uL 0.5 mg/mL collagen IV (Sigma, C5533) overnight at 37 °C. iPSC-derived BMEC-like cells were seeded at 1 million/cm^2 on Transwells (Corning, 3460) in hECSR media. […] This buffer helps to maintain Aβ in monomeric and denatured state. Stocks were then diluted to 500 nM in hECSR medium immediately before experiments. For experiments conditions when recombinant APOE is added, recombinant APOE2 (Peprotech, 350 − 12), APOE3 (Peprotech, 350-02) or APOE4 (Peprotech, 350-04) were added at concentration of 500 nM. In transcytosis assay, 1.5 mL of hECSR medium with Aβ and/or recombinant APOE was added to the basolateral chamber. 0.5 mL of hECSR media that is Aβ-free and APOE-free was added to the apical chamber. The Transwells were then incubated at 37 °C on a 300 rpm orbital shaker for 3 h. Media samples from the apical chamber were taken and analyzed.
(Fig. 2A). […] (Fig. 2E).
(In general: In an ELISA, binding on a coated surface is turned into a signal by an enzyme label.)

Data set [3] addresses T1, LRP1. In words: Aβ42-Hylite488 internalization by pericyte-like cells with LRP1 inhibition by RAP. To be noted: APOE3 pericyte-like cells; with or without RAP; confocal MFI; n = 4 (Fig. 5D, E). In kind it is cell-based. An excerpt:
Patients with AD commonly have amyloid deposits associated with their brain vasculature, contributing to a pathological condition known as cerebral amyloid angiopathy (CAA). Recently, a role of pericytes in CAA has been reported. We quantified deposition of Aβ42, the Aβ isoform more prone to aggregation, for pericyte-like cells expressing different APOE isoforms. […] The pericyte-like cells were then singularized, washed and fixed, but not permeabilized, for cell surface immunolabeling with an anti-Aβ antibody. […] In the same way, we then examined the impact of APOE genotype on pericyte-like cell internalization of Aβ42.
Pericyte-like cells were then singularized, washed and labeled with anti-Aβ-FITC antibody for flow cytometry quantification of cell surface-associated Aβ42. […] FSC: forward scatter. Histogram is normalized to mode. […] Data are reported as mean ± standard deviation. (D) Representative confocal microscopy images showing accumulation of intracellular Aβ42-Hylite488 with or without LRP1 inhibition by RAP in APOE3 pericyte-like cells. […] (E) Quantification of mean fluorescence intensity (MFI) of Aβ42-Hylite488 accumulated inside APOE3 pericyte-like cells by confocal microscopy. […] (G) Quantification of mean fluorescence intensity (MFI) in maximum intensity projection confocal microscopy images of Aβ42-Hylite488 accumulated inside iPSC-derived pericytes by confocal microscopy. […]

Data set [4] relates to iPSC-derived BMEC-like cells. In words: in vitro Aβ transcytosis assay (basolateral-to-apical, Transwell). It counts as cell-based, human. To be noted: 3 h, 37 °C; for effect of recombinant APOE isoform on Aβ42 trafficking: 500 nM rhAPOE plus 500 nM Aβ42 basolateral. On the procedure:
as §1

[5] abbreviates: APOE KO BMEC-like cells on Transwell, apical ELISA, vs no APOE control, n = 12 (Fig. 3D).

T1 sequence (Q07954 20-4544): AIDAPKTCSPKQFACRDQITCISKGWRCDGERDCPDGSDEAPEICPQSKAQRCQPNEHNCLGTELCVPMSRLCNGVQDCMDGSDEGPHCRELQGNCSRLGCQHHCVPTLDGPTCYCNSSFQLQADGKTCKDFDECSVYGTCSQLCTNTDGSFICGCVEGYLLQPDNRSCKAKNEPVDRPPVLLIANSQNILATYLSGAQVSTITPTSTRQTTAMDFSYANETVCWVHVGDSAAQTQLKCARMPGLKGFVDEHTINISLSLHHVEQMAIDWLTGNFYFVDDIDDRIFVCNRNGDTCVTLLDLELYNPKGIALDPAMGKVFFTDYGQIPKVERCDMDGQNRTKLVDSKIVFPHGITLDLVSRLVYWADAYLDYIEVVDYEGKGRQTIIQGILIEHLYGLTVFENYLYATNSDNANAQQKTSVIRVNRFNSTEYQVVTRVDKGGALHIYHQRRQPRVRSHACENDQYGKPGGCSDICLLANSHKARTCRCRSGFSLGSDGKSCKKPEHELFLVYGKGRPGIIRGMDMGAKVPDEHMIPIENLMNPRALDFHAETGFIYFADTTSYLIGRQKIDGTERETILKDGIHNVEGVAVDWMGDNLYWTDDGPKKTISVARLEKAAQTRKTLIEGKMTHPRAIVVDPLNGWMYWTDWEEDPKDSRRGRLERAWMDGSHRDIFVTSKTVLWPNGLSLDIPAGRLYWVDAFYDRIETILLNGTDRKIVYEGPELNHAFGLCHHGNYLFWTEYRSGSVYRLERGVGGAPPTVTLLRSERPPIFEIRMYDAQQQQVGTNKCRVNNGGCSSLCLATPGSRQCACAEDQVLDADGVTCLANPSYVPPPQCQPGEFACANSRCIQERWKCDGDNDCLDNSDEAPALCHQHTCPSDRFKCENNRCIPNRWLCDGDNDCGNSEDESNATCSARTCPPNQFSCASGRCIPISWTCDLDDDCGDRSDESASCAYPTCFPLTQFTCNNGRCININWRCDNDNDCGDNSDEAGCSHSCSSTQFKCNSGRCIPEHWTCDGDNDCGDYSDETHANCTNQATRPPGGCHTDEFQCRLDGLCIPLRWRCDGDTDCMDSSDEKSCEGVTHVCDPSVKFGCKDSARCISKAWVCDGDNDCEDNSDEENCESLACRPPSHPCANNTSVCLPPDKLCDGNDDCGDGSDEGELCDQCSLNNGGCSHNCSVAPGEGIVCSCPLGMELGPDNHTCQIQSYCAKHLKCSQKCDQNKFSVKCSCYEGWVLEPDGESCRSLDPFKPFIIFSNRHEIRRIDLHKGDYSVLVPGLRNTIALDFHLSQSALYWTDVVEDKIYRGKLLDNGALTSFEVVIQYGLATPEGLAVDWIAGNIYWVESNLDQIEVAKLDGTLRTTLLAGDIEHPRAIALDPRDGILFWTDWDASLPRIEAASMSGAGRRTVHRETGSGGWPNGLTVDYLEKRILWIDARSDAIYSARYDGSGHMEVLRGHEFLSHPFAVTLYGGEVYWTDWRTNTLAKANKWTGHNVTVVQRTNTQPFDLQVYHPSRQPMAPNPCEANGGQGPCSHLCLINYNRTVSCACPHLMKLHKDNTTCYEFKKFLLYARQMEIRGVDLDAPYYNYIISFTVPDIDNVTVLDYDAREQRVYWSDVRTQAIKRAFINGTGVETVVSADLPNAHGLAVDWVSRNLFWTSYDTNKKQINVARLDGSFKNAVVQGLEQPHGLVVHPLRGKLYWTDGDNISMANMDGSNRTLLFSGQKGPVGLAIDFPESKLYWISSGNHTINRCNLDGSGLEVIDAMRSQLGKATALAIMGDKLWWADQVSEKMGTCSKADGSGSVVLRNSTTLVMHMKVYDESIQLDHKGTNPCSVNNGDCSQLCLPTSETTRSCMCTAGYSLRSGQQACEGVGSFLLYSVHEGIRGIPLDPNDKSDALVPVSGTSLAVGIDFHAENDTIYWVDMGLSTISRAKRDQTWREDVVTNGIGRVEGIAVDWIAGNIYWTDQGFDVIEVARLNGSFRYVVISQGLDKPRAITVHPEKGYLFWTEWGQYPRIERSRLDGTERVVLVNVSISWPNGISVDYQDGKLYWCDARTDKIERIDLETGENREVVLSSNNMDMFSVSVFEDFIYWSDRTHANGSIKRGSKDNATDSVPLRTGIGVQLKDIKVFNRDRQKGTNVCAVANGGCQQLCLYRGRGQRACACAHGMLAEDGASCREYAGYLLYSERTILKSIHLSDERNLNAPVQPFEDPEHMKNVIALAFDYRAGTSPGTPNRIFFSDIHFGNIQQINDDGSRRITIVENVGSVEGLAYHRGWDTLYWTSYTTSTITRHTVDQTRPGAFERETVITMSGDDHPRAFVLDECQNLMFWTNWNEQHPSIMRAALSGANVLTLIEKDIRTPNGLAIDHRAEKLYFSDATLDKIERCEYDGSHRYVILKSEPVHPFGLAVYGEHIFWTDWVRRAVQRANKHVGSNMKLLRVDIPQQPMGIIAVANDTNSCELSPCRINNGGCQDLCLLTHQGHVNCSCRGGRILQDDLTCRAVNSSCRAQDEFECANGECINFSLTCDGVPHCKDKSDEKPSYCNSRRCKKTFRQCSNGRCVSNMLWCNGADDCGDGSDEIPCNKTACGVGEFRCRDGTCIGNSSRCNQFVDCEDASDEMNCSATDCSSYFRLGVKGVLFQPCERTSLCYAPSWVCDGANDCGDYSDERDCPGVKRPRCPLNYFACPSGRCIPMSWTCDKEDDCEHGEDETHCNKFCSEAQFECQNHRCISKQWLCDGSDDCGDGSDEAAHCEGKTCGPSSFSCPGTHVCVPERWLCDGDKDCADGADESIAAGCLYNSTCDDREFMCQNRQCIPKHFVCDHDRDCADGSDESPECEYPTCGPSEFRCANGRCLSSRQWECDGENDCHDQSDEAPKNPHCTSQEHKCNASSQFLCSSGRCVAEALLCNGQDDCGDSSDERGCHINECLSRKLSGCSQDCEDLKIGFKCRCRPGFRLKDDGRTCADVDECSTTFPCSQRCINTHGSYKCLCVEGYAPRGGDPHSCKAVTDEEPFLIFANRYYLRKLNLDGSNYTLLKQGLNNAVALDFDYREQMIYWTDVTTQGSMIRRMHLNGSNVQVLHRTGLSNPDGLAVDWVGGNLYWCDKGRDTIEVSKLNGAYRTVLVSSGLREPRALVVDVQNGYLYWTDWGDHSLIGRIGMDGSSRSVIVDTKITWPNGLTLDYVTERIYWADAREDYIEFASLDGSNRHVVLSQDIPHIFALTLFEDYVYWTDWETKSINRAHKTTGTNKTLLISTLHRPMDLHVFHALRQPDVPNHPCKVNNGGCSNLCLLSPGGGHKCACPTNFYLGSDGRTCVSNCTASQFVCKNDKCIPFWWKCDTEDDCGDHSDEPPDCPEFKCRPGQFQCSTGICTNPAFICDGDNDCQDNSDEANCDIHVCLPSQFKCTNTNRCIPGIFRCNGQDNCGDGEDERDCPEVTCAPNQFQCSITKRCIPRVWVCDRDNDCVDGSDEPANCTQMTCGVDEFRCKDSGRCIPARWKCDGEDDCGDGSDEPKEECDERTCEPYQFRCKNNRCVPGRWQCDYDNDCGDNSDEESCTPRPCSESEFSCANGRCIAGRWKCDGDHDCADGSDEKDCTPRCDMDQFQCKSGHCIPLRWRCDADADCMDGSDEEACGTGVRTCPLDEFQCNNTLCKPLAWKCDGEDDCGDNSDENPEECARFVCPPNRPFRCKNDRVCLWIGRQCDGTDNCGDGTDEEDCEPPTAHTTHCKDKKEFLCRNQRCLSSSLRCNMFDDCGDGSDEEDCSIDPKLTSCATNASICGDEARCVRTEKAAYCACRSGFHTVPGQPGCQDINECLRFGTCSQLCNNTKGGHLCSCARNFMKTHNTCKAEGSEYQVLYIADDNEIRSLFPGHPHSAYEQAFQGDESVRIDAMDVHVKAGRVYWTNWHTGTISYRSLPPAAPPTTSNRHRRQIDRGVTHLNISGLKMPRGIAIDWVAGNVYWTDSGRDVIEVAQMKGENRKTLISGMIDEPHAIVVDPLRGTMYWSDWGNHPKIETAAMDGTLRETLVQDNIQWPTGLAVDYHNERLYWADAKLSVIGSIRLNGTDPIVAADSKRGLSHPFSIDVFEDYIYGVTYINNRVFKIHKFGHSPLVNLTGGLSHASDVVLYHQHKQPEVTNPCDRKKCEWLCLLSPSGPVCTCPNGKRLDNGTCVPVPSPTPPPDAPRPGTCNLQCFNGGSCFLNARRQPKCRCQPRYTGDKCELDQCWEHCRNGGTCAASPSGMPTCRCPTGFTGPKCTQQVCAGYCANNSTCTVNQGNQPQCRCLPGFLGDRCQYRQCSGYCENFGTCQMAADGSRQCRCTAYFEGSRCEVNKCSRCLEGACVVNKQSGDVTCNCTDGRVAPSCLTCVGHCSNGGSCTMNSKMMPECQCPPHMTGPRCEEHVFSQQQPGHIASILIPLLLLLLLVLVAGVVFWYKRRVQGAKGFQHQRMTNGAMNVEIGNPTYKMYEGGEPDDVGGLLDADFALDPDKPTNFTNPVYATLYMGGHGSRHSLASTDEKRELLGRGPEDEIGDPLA

Turning to “Aβ42-HyLite488: fluorescently labeled Aβ42”, the “internalization by APOE3 pericyte-like cells” value in data set [1] is “internalized fluorescently labeled Aβ42-HyLite488”.
On to “RAP: LRP1 inhibitor; competes with APOE for LRP1 binding”, for which the “effect of LRP1 inhibition on basolateral-to-apical Aβ40 transcytosis” value in data set [2] is on record as “reduced but did not completely inhibit Aβ transcytosis”. Moreover, in data set [3], the “effect of LRP1 inhibition on Aβ42-Hylite488 internalization” value is “internalization was diminished”.
Take “rhAPOE2: recombinant human APOE2 (Peprotech, 350 − 12)”: the “effect of recombinant APOE isoform on Aβ42 trafficking” value in data set [4] (setting [5]) is “significantly increased the trafficking of Aβ42”.
With “rhAPOE3: recombinant human APOE3 (Peprotech, 350-02)”, the “effect on basolateral-to-apical Aβ40 transcytosis” value in data set [4] (APOE3 iPSC-derived BMEC-like cells on Transwell, Aβ40 dosed basolateral with or without rhAPOE3, apical Aβ40 by ELISA, n = 8 wells (Fig. 2D)) was “facilitated Aβ40 transcytosis”. For the same substance, in data set [4] (APOE KO BMEC-like cells on Transwell, 500 nM rhAPOE plus 500 nM Aβ40 basolateral, apical ELISA, vs no APOE control, n = 12 (Fig. 3D)), the “effect of recombinant APOE isoform on Aβ40 trafficking” value is on record as “significantly increased the trafficking of Aβ40”.
Turning to “rhAPOE4: recombinant human APOE4 (Peprotech, 350-04)”, in data set [4] (setting [5]), the “effect of recombinant APOE isoform on Aβ42 trafficking” value is “does not provide any increase in Aβ40 or Aβ42 clearance”.
